Test results reported in PubChem BioAssay (NCI).
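All cell lines were grown in 96-well plates and treated with compound for 48 hours. The concentration for full growth arrest is given as TGI.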

Tests used:
Experiment in all cases: NCI tumour cell line growth inhibition, 48 h
A549 NSCLC = test system: A549 NSCLC
SR leukemia = test system: SR leukemia
SF-539 CNS = test system: SF-539 CNS
HT29 colon = test system: HT29 colon
HCT-116 colon = test system: HCT-116 colon
ACHN renal = test system: ACHN renal
KM12 colon = test system: KM12 colon
IGROV1 ovarian = test system: IGROV1 ovarian
OVCAR-5 ovarian = test system: OVCAR-5 ovarian
DU-145 prostate = test system: DU-145 prostate
SW-620 colon = test system: SW-620 colon
MDA-N = test system: MDA-N
EKVX NSCLC = test system: EKVX NSCLC
HCC-2998 colon = test system: HCC-2998 colon
MCF7 breast = test system: MCF7 breast
BT-549 breast = test system: BT-549 breast
SK-MEL-5 melanoma = test system: SK-MEL-5 melanoma
CAKI-1 renal = test system: CAKI-1 renal
SF-268 CNS = test system: SF-268 CNS
OVCAR-3 ovarian = test system: OVCAR-3 ovarian
NCI-H460 lung = test system: NCI-H460 lung
MALME-3M melanoma = test system: MALME-3M melanoma
HOP-62 NSCLC = test system: HOP-62 NSCLC
HL-60(TB) leukemia = test system: HL-60(TB) leukemia
MDA-MB-231 breast = test system: MDA-MB-231 breast
MDA-MB-435 = test system: MDA-MB-435
RPMI-8226 leukemia = test system: RPMI-8226 leukemia
U251 CNS = test system: U251 CNS
HS 578T breast = test system: HS 578T breast
SF-295 CNS = test system: SF-295 CNS
NCI/ADR-RES ovarian = test system: NCI/ADR-RES ovarian
SNB-19 CNS = test system: SNB-19 CNS
NCI-H226 lung = test system: NCI-H226 lung
UACC-62 melanoma = test system: UACC-62 melanoma
T-47D breast = test system: T-47D breast
HCT-15 colon = test system: HCT-15 colon
SK-OV-3 ovarian = test system: SK-OV-3 ovarian
COLO 205 colon = test system: COLO 205 colon
786-0 renal = test system: 786-0 renal
PC-3 prostate = test system: PC-3 prostate
RXF 393 renal = test system: RXF 393 renal
K-562 leukemia = test system: K-562 leukemia
NCI-H522 lung = test system: NCI-H522 lung
HOP-92 NSCLC = test system: HOP-92 NSCLC
SK-MEL-28 melanoma = test system: SK-MEL-28 melanoma
UACC-257 melanoma = test system: UACC-257 melanoma
SN12C renal = test system: SN12C renal
NCI-H23 lung = test system: NCI-H23 lung
MOLT-4 leukemia = test system: MOLT-4 leukemia
TK-10 renal = test system: TK-10 renal
OVCAR-8 ovarian = test system: OVCAR-8 ovarian
M14 melanoma = test system: M14 melanoma
SK-MEL-2 melanoma = test system: SK-MEL-2 melanoma
UO-31 renal = test system: UO-31 renal
CCRF-CEM leukemia = test system: CCRF-CEM leukemia
LOX IMVI melanoma = test system: LOX IMVI melanoma
SNB-75 CNS = test system: SNB-75 CNS
OVCAR-4 ovarian = test system: OVCAR-4 ovarian

**Q.** Which results are given for O=C(Oc1c(Br)cc(Br)cc1C(=O)Oc1ccccc1)C(=O)Oc1c(Br)cc(Br)cc1C(=O)Oc1ccccc1?
**A.** TGI (A549 NSCLC): 73.8 µM; TGI (SR leukemia): 56.1 µM; TGI (SF-539 CNS): 51.8 µM; TGI (HT29 colon): > 100 µM; TGI (HCT-116 colon): 31.6 µM; TGI (ACHN renal): > 100 µM; TGI (KM12 colon): 84.1 µM; TGI (IGROV1 ovarian): > 100 µM; TGI (OVCAR-5 ovarian): 89.9 µM; TGI (DU-145 prostate): > 100 µM; TGI (SW-620 colon): 51.1 µM; TGI (MDA-N): 81.3 µM; TGI (EKVX NSCLC): > 100 µM; TGI (HCC-2998 colon): > 100 µM; TGI (MCF7 breast): 60.8 µM; TGI (BT-549 breast): 52 µM; TGI (SK-MEL-5 melanoma): 31 µM; TGI (CAKI-1 renal): 57.9 µM; TGI (SF-268 CNS): > 100 µM; TGI (OVCAR-3 ovarian): 66.2 µM; TGI (NCI-H460 lung): > 100 µM; TGI (MALME-3M melanoma): 59.2 µM; TGI (HOP-62 NSCLC): 45.1 µM; TGI (HL-60(TB) leukemia): > 100 µM; TGI (MDA-MB-231 breast): 30.6 µM; TGI (MDA-MB-435): > 100 µM; TGI (RPMI-8226 leukemia): 52.9 µM; TGI (U251 CNS): 40.6 µM; TGI (HS 578T breast): > 100 µM; TGI (SF-295 CNS): > 100 µM; TGI (NCI/ADR-RES ovarian): > 100 µM; TGI (SNB-19 CNS): 64.8 µM; TGI (NCI-H226 lung): 46 µM; TGI (UACC-62 melanoma): > 100 µM; TGI (T-47D breast): 75 µM; TGI (HCT-15 colon): 75.3 µM; TGI (SK-OV-3 ovarian): > 100 µM; TGI (COLO 205 colon): 51.8 µM; TGI (786-0 renal): 50.3 µM; TGI (PC-3 prostate): 69.6 µM; TGI (RXF 393 renal): 27.2 µM; TGI (K-562 leukemia): 55.7 µM; TGI (NCI-H522 lung): 32.6 µM; TGI (HOP-92 NSCLC): 38.4 µM; TGI (SK-MEL-28 melanoma): > 100 µM; TGI (UACC-257 melanoma): > 100 µM; TGI (SN12C renal): 97.4 µM; TGI (NCI-H23 lung): 46.6 µM; TGI (MOLT-4 leukemia): 55.1 µM; TGI (TK-10 renal): > 100 µM; TGI (OVCAR-8 ovarian): > 100 µM; TGI (M14 melanoma): > 100 µM; TGI (SK-MEL-2 melanoma): 93.3 µM; TGI (UO-31 renal): 49.7 µM

**Q.** What does the source list for Fc1cccc(C2SCc3nc4cc5ccccc5cc4n32)c1 (stereo not drawn)?
**A.** TGI (A549 NSCLC): > 100 µM; TGI (SR leukemia): > 100 µM; TGI (SF-539 CNS): > 100 µM; TGI (HT29 colon): > 100 µM; TGI (HCT-116 colon): > 100 µM; TGI (ACHN renal): > 100 µM; TGI (KM12 colon): > 100 µM; TGI (IGROV1 ovarian): > 100 µM; TGI (OVCAR-5 ovarian): > 100 µM; TGI (DU-145 prostate): > 100 µM; TGI (SW-620 colon): > 100 µM; TGI (MDA-N): > 100 µM; TGI (EKVX NSCLC): > 100 µM; TGI (HCC-2998 colon): > 100 µM; TGI (MCF7 breast): > 100 µM; TGI (BT-549 breast): > 100 µM; TGI (CAKI-1 renal): > 100 µM; TGI (SF-268 CNS): > 100 µM; TGI (OVCAR-3 ovarian): > 100 µM; TGI (MALME-3M melanoma): > 100 µM; TGI (CCRF-CEM leukemia): > 100 µM; TGI (HOP-62 NSCLC): > 100 µM; TGI (MDA-MB-231 breast): > 100 µM; TGI (MDA-MB-435): > 100 µM; TGI (RPMI-8226 leukemia): > 100 µM; TGI (U251 CNS): > 100 µM; TGI (HS 578T breast): > 100 µM; TGI (SF-295 CNS): > 100 µM; TGI (NCI/ADR-RES ovarian): > 100 µM; TGI (SNB-19 CNS): > 100 µM; TGI (NCI-H226 lung): > 100 µM; TGI (UACC-62 melanoma): > 100 µM; TGI (T-47D breast): > 100 µM; TGI (HCT-15 colon): > 100 µM; TGI (SK-OV-3 ovarian): > 100 µM; TGI (LOX IMVI melanoma): > 100 µM; TGI (COLO 205 colon): > 100 µM; TGI (786-0 renal): > 100 µM; TGI (PC-3 prostate): > 100 µM; TGI (RXF 393 renal): > 100 µM; TGI (K-562 leukemia): > 100 µM; TGI (HOP-92 NSCLC): > 100 µM; TGI (SNB-75 CNS): > 100 µM; TGI (SK-MEL-28 melanoma): > 100 µM; TGI (UACC-257 melanoma): > 100 µM; TGI (SN12C renal): > 100 µM; TGI (NCI-H23 lung): > 100 µM; TGI (OVCAR-4 ovarian): > 100 µM; TGI (MOLT-4 leukemia): > 100 µM; TGI (TK-10 renal): > 100 µM; TGI (OVCAR-8 ovarian): > 100 µM; TGI (M14 melanoma): > 100 µM; TGI (SK-MEL-2 melanoma): > 100 µM; TGI (UO-31 renal): > 100 µM
